Assay [1] deals with β-catenin accumulation in the nucleus of murine C3H/10T1/2 cells. Put plainly: Cellular beta-catenin stabilisation assay, Test (b). Type of assay: cell-based. Conditions: Mus musculus, 24 hours, read-out: EC50 versus cellular β-catenin accumulation in the nucleus of murine C3H/10T1/2 cells. As for the experimental part: This assay uses an imaging based approach to measure the ability of test compounds to promote Beta-catenin stabilisation in the nucleus of C3H10T1/2 cells. Beta-catenin stabilisation is an indicator of GSK3β inhibition.
A C3H10T1/2 mouse clone 8 fibroblast cell line (American Type Culture Collection (ATCC, USA; catalogue number CRL 226) was routinely maintained at 37° C. with 5% CO2 in Basal Medium Eagle (BME, Invitrogen; Paisley, UK; catalogue number 41010) containing 10% (v/v) foetal bovine serum (FBS, Invitrogen, Paisley; UK; catalogue number 10270) and 2 mM L-glutamine (Invitrogen, Paisley, UK; catalogue number 25030024). For the assay, the cells were detached from the culture flask with ‘Accutase’ (Innovative Cell Technologies Inc., San Diego, USA; catalogue number AT104) using standard tissue culture methods and re-suspended in assay media comprising of BME containing 5% (v/v) FBS and 2 mM L-glutamine to give 55,555 cells per ml. Then, 90 μl of this solution was seeded into each well of a clear-bottom 96 well tissue culture plate (Perkin Elmer Viewplate; catalogue number 6005182) using a Multidrop Combi Dispenser (Thermo Fisher Scientific, Loughborough, UK) to give 5,000 cells per well. Plates were incubated overnight at 37° C. with 5% CO2 to allow the cells to adhere to the wells. Test compounds were prepared as 10 mM stock solutions in dimethylsulphoxide (DMSO) (Sigma-Aldrich; Poole, UK, catalogue number 49442-9) and serially diluted in DMSO. A Multidrop Combi was used to dispense 245 μl of pre-warmed assay media into a 96 well plate (Thermo Fisher Scientific, Loughborough, UK; catalogue number 50823925) before 5 μl of serially diluted compound was added to this intermediate plate. After mixing, 10 μl of each compound concentration was added to the cell plates. The total dilution factor from DMSO stock was 500 times. Control cells received either DMSO (0.2% v/v final concentration) or 10 μM positive control compound. The cells were incubated for 24 hours at 37° C. with 5% CO2.
After compound treatment the cells were fixed by the addition of 100 μl of 8% w/v paraformaldehyde (Sigma-Aldrich, Poole, UK; catalogue number P6148), directly into the assay plate wells. The cells were incubated at ambient temperature with fixative for 30 minutes before washing 3 times with 100 μl phosphate-buffered saline (PBS, Sigma-Aldrich; catalogue number D8537). […] The cells were then washed 3 times in 100 μl of PBS before the plates were sealed ready for image capture. Fluorescent images were captured and quantified using the Incell Analyser 3000 (GE Healthcare, USA). […]

In assay [2] the target is PIM3 (Homo sapiens, UniProt Q86V86). Put plainly: Inhibitory activity against PIM3. The class given is biochemical.

SMILES strings stand for the structures. Counter-ions that a name gives are not always drawn.

On to `COCCCNCCCc1ccc(-c2cnc(N)c(C(=O)Nc3cccnc3)n2)cc1` [Example 1, 3-Amino-6-(4-{3-[(3-methoxypropyl)amino]propyl}phenyl)-N-pyridin-3-ylpyrazine-2-carboxamide tri-hydrochloride], for which the EC50 in assay [1] was approximately 0.242 µM. The “Inhibitory activity against PIM3” value in assay [2] is reported as “inhibitory activity”.

For the origin of these results see patent US8198285B2, “Pyrazine derivatives” (Astrazeneca AB, priority 2010, dated 2012).
